Assay results: patent US11753484B2, “Cellulose ether-lactam hybrid polymers, compositions, and methods for preparing and using the hybrid polymers” (HERCULES LLC, priority 2017, dated 2023)

How the values were obtained:
[1] = Dissolution of Efavirenz spray dried dispersions in FaSSIF media (Pion μDiss Profiler); type: physicochemical
Experimental: (§1) The active pharmaceutical ingredient (API) and polymer were mixed in a 30:70 ratio and spray-dried into a spray dried dispersion (SDD). The following are the solution preparation and spray drying process information. Solution preparation: Efavirenz and polymers were dissolved in a 2:1 (w/w) mixture of acetone:methanol solution at a total 3% solid loading. Dissolution of all components was visually confirmed before spray drying. Spray drying: Spray drying was performed on a GEA-Niro SD Micro spray dryer. All dispersions were spray dried targeting an inlet gas temperature of 85° C., 25 kg/hour process gas flow, 0.5 barr atomization gas pressure, 1.5 kg/hour atomizing gas flow, and an adjustable liquid feed rate targeting an outlet gas temperature of 55° C. The feed solution was held at ambient conditions. Dissolution: The dissolution tests were conducted using Pion μDiss Profiler with in situ Fiber Optic UV-Vis Monitoring. 66.7 mg spray dried dispersion (SDD) was weighed and tested in the dissolution, with 30% drug loading level (20 mg API). The controlled reference used in dissolution testing is pure API Efavirenz (20 mg). The quantity of dissolution media is 20 mL. The API concentrations were monitored for 2 hours. For each sample, triplicate measurements were taken and the average results were reported. Fasted Simulated Intestine Fluid (FaSSIF), as well as pH 6.8 phosphate buffer, were used to perform the dissolution. FaSSIF is virtually the same as the small intestinal juices present when one hasn't eaten any food, and contain bile salts and phospholipids, physiologically relevant surfactants which are missing from typical dissolution media. The use of FaSSIF media can help to better correlate the in vitro dissolution property and the in vivo response (IVIVC), so as to further understand the API performance in actual human body. Meanwhile, pH 6.8 phosphate buffer medium was also used in the study, as it was more typically used in formulation development/screening process, pH 6.8 phosphate buffer medium is not as indicated as FaSSIF medium in terms of establishing the IVIVC. […]

[2] = Dissolution of Efavirenz spray dried dispersions in pH 6.8 phosphate buffer media (Pion μDiss Profiler); type: physicochemical
Experimental: as §1

[3] = description of the API; cited from earlier work
[4] = cited from earlier work
[5] = BCS-2 type drug; cited from earlier work
[6] = Glass transition temperature (Tg) by differential scanning calorimetry; type: physicochemical; conditions: regular DSC, heat-cool-heat, 10° C./minute, second heating cycle
Experimental: Differential Scanning Calorimetry (DSC): Glass transition temperature Tg is an important indicator of API physical stability against crystallization through storage. The higher Tg, the better physical stability. Generally speaking, if the Tg is equal to or higher than storage temperature+50° C., then the product is expected to be very stable throughout the entire shelf life. If the Tg is between storage temperature and temperature+50° C., then some stability issue may occur.
The glass transition temperature (Tg) measurement were conducted using TA instrument, Q2000. For pure ingredients, regular DSC set up was used. A heat-cool-heat cycle with a heating rate of 10° C./minutes was implemented. The first heating cycle is used to standardize sample by erasing its thermal history, and the Tg from second heating cycle is reported. For SDD, modulated DSC set up was used. An average heating rate of 2° C./minute with modulation amplitude of 1° per 40 seconds was implemented.
The measurement results are summarized below in the Table. […] Stable SDDs are expected from this indicator.

[7] = 20 mg API in 20 mL, 30% drug load SDD (API:polymer 30:70), 2 hours, mean of triplicate
[8] = Efavirenz concentration at 120 min, SDD 30:70

`O=C1Nc2ccc(Cl)cc2[C@@](C#CC2CC2)(C(F)(F)F)O1` [Efavirenz] gave an AUC [1, 7] of 18702.91 µg·min/mL, a relAUC ([1]; AUC of SDD vs AUC of neat API) of 1.0 and a C120 [1, 8] of 166.7892 µg/mL. The AUC [2, 7] was 960.92 µg·min/mL, the relAUC ([2]; AUC of SDD vs AUC of neat API) was 1.0 and the C120 [2, 8] was 9.924 µg/mL. For the same compound, the glass transition temperature [3] was “around 35 °C”, the “partition coefficient in an octanol-water system (logP)” value [4] was 4.7 and the aqueous solubility [5] was “poor”. The “Tg, Pure ingredient” value [6] was 34.9 °C.
